Source: ChEMBL document CHEMBL1133283, “Arylsulfonyl-N,N-diethyl-dithiocarbamates: a novel class of antitumor agents” (Bioorg Med Chem Lett, 2000)

Experiments:
Carbonic anhydrase 2 = Carbonic anhydrase 2 (Homo sapiens, UniProt P00918); test: Binding affinity of compound against human Carbonic anhydrase II
SW-620 = test: In vitro growth inhibition of compound was determined against SW-620 cell lines of colon cancer; assay type: functional; conditions: Homo sapiens
Malme-3M = test: In vitro growth inhibition of compound was determined against MALME-3M cell lines of Melanoma; assay type: functional; conditions: Homo sapiens
MDA-MB-231 = test: In vitro growth inhibition of compound was determined against MDA-MB-231/ATCC cell lines of Breast cancer; assay type: functional; conditions: Homo sapiens
HCT-15 = test: In vitro growth inhibition of compound was determined against HCT-15 cell lines of colon cancer; assay type: functional; conditions: Homo sapiens
RPMI-8226 = test: In vitro growth inhibition of compound was determined against RPMI-8226 cell lines of Leukemia; assay type: functional; conditions: Homo sapiens
COLO 205 = test: In vitro growth inhibition of compound was determined against COLO-205 cell lines of colon cancer; assay type: functional; conditions: Homo sapiens
SF-268 = test: In vitro growth inhibition of compound was determined against SF-268 cell lines of CNS cancer; assay type: functional; conditions: Homo sapiens
CAKI-1 = test: In vitro growth inhibition of compound was determined against CAKI-1 cell lines of Renal cancer; assay type: functional; conditions: Homo sapiens
NCI-H522 = test: In vitro growth inhibition of compound was determined against NCI-H522 cell lines of non-small cell lung cancer; assay type: functional; conditions: Homo sapiens
HL-60 = test: In vitro growth inhibition of compound was determined against HL-60(TB) cell lines of Leukemia; assay type: functional; conditions: Homo sapiens
UACC-257 = test: In vitro growth inhibition of compound was determined against UACC-257 cell lines of Melanoma; assay type: functional; conditions: Homo sapiens
MDA-MB-435 = test: In vitro growth inhibition of compound was determined against MDA-MB-435 cell lines of Breast cancer; assay type: functional; conditions: Homo sapiens
U-251 = test: In vitro growth inhibition of compound was determined against U251 cell lines of CNS cancer; assay type: functional; conditions: Homo sapiens
NCI/ADR-RES = test: In vitro growth inhibition of compound was determined against NCI/ADR-RES cell lines of Breast cancer; assay type: functional; conditions: Homo sapiens
OVCAR-8 = test: In vitro growth inhibition of compound was determined against OVCAR-8 cell lines of Ovarian cancer; assay type: functional; conditions: Homo sapiens
DU-145 = test: In vitro growth inhibition of compound was determined against DU-145 cell lines of Prostate cancer; assay type: functional; conditions: Homo sapiens
KM12 = test: In vitro growth inhibition of compound was determined against KM12 cell lines of colon cancer; assay type: functional; conditions: Homo sapiens
IGROV-1 = test: In vitro growth inhibition of compound was determined against IGROVI cell lines of Ovarian cancer; assay type: functional; conditions: Homo sapiens
CCRF-CEM = test: In vitro growth inhibition of compound was determined against CCRF-CEM cell lines of Leukemia; assay type: functional; conditions: Homo sapiens
LOX IMVI = test: In vitro growth inhibition of compound was determined against LOX IMVI cell lines of Melanoma; assay type: functional; conditions: Homo sapiens
MDA-N = test: In vitro growth inhibition of compound was determined against MDA-Ncell lines of Breast cancer; assay type: functional; conditions: Homo sapiens
SF-295 = test: In vitro growth inhibition of compound was determined against SF-295 cell lines of CNS cancer; assay type: functional; conditions: Homo sapiens
OVCAR-3 = test: In vitro growth inhibition of compound was determined against OVCAR-3 cell lines of Ovarian cancer; assay type: functional; conditions: Homo sapiens
UO-31 = test: In vitro growth inhibition of compound was determined against UO-31 cell lines of Renal cancer; assay type: functional; conditions: Homo sapiens
OVCAR-4 = test: In vitro growth inhibition of compound was determined against OVCAR-4 cell lines of Ovarian cancer; assay type: functional; conditions: Homo sapiens
TK-10 = test: In vitro growth inhibition of compound was determined against TK-10 cell lines of Renal cancer; assay type: functional; conditions: Homo sapiens
Hs-578T = test: In vitro growth inhibition of compound was determined against Hs 578.T cell lines of Breast cancer; assay type: functional; conditions: Homo sapiens
K562 = test: In vitro growth inhibition of compound was determined against K-562 cell lines of Leukemia; assay type: functional; conditions: Homo sapiens
BT-549 = test: In vitro growth inhibition of compound was determined against BT-549 cell lines of Breast cancer; assay type: functional; conditions: Homo sapiens
M14 = test: In vitro growth inhibition of compound was determined against M14 cell lines of Melanoma; assay type: functional; conditions: Homo sapiens
786-0 = test: In vitro growth inhibition of compound was determined against […] cell lines of Renal cancer; assay type: functional; conditions: Homo sapiens
MOLT-4 = test: In vitro growth inhibition of compound was determined against MOLT-4 cell lines of Leukemia; assay type: functional; conditions: Homo sapiens
HOP-92 = test: In vitro growth inhibition of compound was determined against HOP-92 cell lines of non-small cell lung cancer; assay type: functional; conditions: Homo sapiens
SK-MEL-5 = test: In vitro growth inhibition of compound was determined against SK-MEL-5 cell lines of Melanoma; assay type: functional; conditions: Homo sapiens
HOP-62 = test: In vitro growth inhibition of compound was determined against HOP-62 cell lines of non-small cell lung cancer; assay type: functional; conditions: Homo sapiens
SK-MEL-28 = test: In vitro growth inhibition of compound was determined against SK-MEL-28 cell lines of Melanoma; assay type: functional; conditions: Homo sapiens
NCI-H226 = test: In vitro growth inhibition of compound was determined against NCI-H226 cell lines of non-small cell lung cancer; assay type: functional; conditions: Homo sapiens
HCT-116 = test: In vitro growth inhibition of compound was determined against HCT116 cell lines of colon cancer; assay type: functional; conditions: Homo sapiens
ACHN = test: In vitro growth inhibition of compound was determined against ACHN cell lines of Renal cancer; assay type: functional; conditions: Homo sapiens
SN12C = test: In vitro growth inhibition of compound was determined against SN12C cell lines of Renal cancer; assay type: functional; conditions: Homo sapiens
SR = test: In vitro growth inhibition of compound was determined against SR cell lines of Leukemia; assay type: functional; conditions: Homo sapiens
HCC 2998 = test: In vitro growth inhibition of compound was determined against HCC2998 cell lines of colon cancer; assay type: functional; conditions: Homo sapiens
MCF7 = test: In vitro growth inhibition of compound was determined against MCF-7 cell lines of Breast cancer; assay type: functional; conditions: Homo sapiens
RXF 393 = test: In vitro growth inhibition of compound was determined against RXF393 cell lines of Renal cancer; assay type: functional; conditions: Homo sapiens
SNB-75 = test: In vitro growth inhibition of compound was determined against SNB-75 cell lines of CNS cancer; assay type: functional; conditions: Homo sapiens
A549 = test: In vitro growth inhibition of compound was determined against A549/ATCC cell lines of non-small cell lung cancer; assay type: functional; conditions: Homo sapiens
PC-3 = test: In vitro growth inhibition of compound was determined against PC-3 cell lines of Prostate cancer; assay type: functional; conditions: Homo sapiens
HT-29 = test: In vitro growth inhibition of compound was determined against HT-29 cell lines of colon cancer; assay type: functional; conditions: Homo sapiens

Structure (SMILES): NS(=O)(=O)c1ccc(CCNSC(=S)N2CCOCC2)cc1
- Ki (Carbonic anhydrase 2): 0.035 µM

Structure (SMILES): NS(=O)(=O)c1ccc(CNSC(=S)N2CCOCC2)cc1
- Ki (Carbonic anhydrase 2): 0.035 µM

Structure (SMILES): CCN(CC)C(=S)SS(=O)(=O)c1ccc(NC(C)=O)cc1
- GI50 (SW-620): 16 µM
- GI50 (Malme-3M): 16 µM
- GI50 (MDA-MB-231): 20 µM
- GI50 (HCT-15): 28 µM
- GI50 (RPMI-8226): 18 µM
- GI50 (COLO 205): 22 µM
- GI50 (SF-268): 44 µM
- GI50 (CAKI-1): 16 µM
- GI50 (NCI-H522): < 0.01 µM
- GI50 (HL-60): 24 µM
- GI50 (UACC-257): 9 µM
- GI50 (MDA-MB-435): 19 µM
- GI50 (U-251): 15 µM
- GI50 (NCI/ADR-RES): 27 µM
- GI50 (OVCAR-8): 15 µM
- GI50 (DU-145): 23 µM
- GI50 (KM12): 13 µM
- GI50 (IGROV-1): 12 µM
- GI50 (CCRF-CEM): 20 µM
- GI50 (LOX IMVI): 14 µM
- GI50 (MDA-N): 21 µM
- GI50 (SF-295): 28 µM
- GI50 (OVCAR-3): 31 µM
- GI50 (UO-31): 20 µM
- GI50 (OVCAR-4): 22 µM
- GI50 (TK-10): 48 µM
- GI50 (Hs-578T): 60 µM
- GI50 (K562): 69 µM
- GI50 (BT-549): 61 µM
- GI50 (M14): 15 µM
- GI50 (786-0): 17 µM
- GI50 (MOLT-4): 48 µM
- GI50 (HOP-92): 16 µM
- GI50 (SK-MEL-5): 0.4 µM
- GI50 (HOP-62): 18 µM
- GI50 (SK-MEL-28): 15 µM
- GI50 (NCI-H226): 35 µM
- GI50 (HCT-116): 15 µM
- GI50 (ACHN): 27 µM
- GI50 (SN12C): 18 µM
- GI50 (SR): 0.01 µM
- GI50 (HCC 2998): 27 µM
- GI50 (MCF7): 18 µM
- GI50 (RXF 393): 11 µM
- GI50 (SNB-75): 32 µM
- GI50 (A549): 0.2 µM

Structure (SMILES): CCN(CC)C(=S)SS(=O)(=O)c1ccccc1[N+](=O)[O-]
- GI50 (SW-620): 15 µM
- GI50 (Malme-3M): 10 µM
- GI50 (MDA-MB-231): 16 µM
- GI50 (PC-3): 54 µM
- GI50 (HCT-15): 34 µM
- GI50 (RPMI-8226): 15 µM
- GI50 (COLO 205): 28 µM
- GI50 (SF-268): 26 µM
- GI50 (CAKI-1): 17 µM
- GI50 (NCI-H522): 0.08 µM
- GI50 (HL-60): 0.2 µM
- GI50 (UACC-257): 17 µM
- GI50 (MDA-MB-435): 18 µM
- GI50 (U-251): 13 µM
- GI50 (NCI/ADR-RES): 30 µM
- GI50 (OVCAR-8): 18 µM
- GI50 (DU-145): 19 µM
- GI50 (KM12): 12 µM
- GI50 (HT-29): 14 µM
- GI50 (IGROV-1): 0.5 µM
- GI50 (CCRF-CEM): 2.5 µM
- GI50 (LOX IMVI): 16 µM
- GI50 (MDA-N): 19 µM
- GI50 (SF-295): 32 µM
- GI50 (OVCAR-3): 22 µM
- GI50 (UO-31): 13 µM
- GI50 (OVCAR-4): 23 µM
- GI50 (TK-10): 29 µM
- GI50 (Hs-578T): 29 µM
- GI50 (K562): 11 µM
- GI50 (BT-549): 26 µM
- GI50 (M14): 11 µM
- GI50 (786-0): 19 µM
- GI50 (MOLT-4): 0.4 µM
- GI50 (HOP-92): 14 µM
- GI50 (SK-MEL-5): 3 µM
- GI50 (HOP-62): 20 µM
- GI50 (SK-MEL-28): 13 µM
- GI50 (NCI-H226): 36 µM
- GI50 (HCT-116): 15 µM
- GI50 (ACHN): 24 µM
- GI50 (SN12C): 18 µM
- GI50 (SR): 0.3 µM
- GI50 (HCC 2998): 24 µM
- GI50 (MCF7): 25 µM
- GI50 (RXF 393): 15 µM
- GI50 (SNB-75): 76 µM
- GI50 (A549): 3 µM
